16 compounds from ChEMBL document CHEMBL1151117, “Irritant principles of the spurge family (Euphorbiaceae). XIII. Oligocyclic and macrocyclic diterpene esters from latices of some Euphorbia species utilized as source plants of honey” (J Nat Prod, 1988) can be followed below.

Common to all, as to format: ADME, organism-based
For data set [1], the species on record is Mus musculus. Put plainly: Skin irritant activity in NMRI mouse ear assessed as irritant dose 50 per ear after 24 hrs. The following applies: in vivo, topical_or_ocular.
The species entered for data set [2] is Mus musculus. Briefly: Skin irritant activity in NMRI mouse ear assessed as irritancy 50 after 24 hrs. The following applies: in vivo.
Data set [3] is filed under the species Mus musculus. Briefly: Skin irritant activity in SIM mouse ear assessed as irritation unit per ear after 24 hrs. The following applies: in vivo.

As for `C/C=C(/C)C(=O)O[C@@]12C[C@@H](C)[C@@]3(O)[C@@H](C=C(COC(C)=O)C[C@]4(O)C(=O)C(C)=C[C@@H]34)[C@@H]1[C@@]2(C)COC(=O)C(C)CC` (some centres not stated), the results for the Activity in the data set filed under Mus musculus [1] and in the data set filed under Mus musculus [2] were 2.4 nmol and 0.4 nmol⁻¹, respectively.

Turning to `C/C=C(\C)C(=O)O[C@@H]1[C@@H]2[C@H]([C@H](OC(=O)C(C)CC)[C@H](OC(C)=O)/C(C)=C/[C@@]34O[C@@]3(C[C@H](C)[C@@H]4OC(C)=O)C(=O)[C@@H]1C)C2(C)C` (some centres not stated), the Activity in the data set filed under Mus musculus [3] is more than 1000 µg.

Turning to `C/C=C(\C)C(=O)O[C@@H]1[C@@H]2[C@H]([C@H](OC(C)=O)[C@H](OC(C)=O)/C(C)=C/[C@@]34O[C@@]3(C[C@H](C)[C@@H]4OC(C)=O)C(=O)[C@@H]1C)C2(C)C`, the Activity in the data set listed under Mus musculus [3] is more than 1000 µg. In the case of `CC(=O)O[C@@]12C[C@@H](C)[C@@]3(O)[C@@H](C=C(CO)C[C@]4(O)C(=O)C(C)=C[C@@H]34)[C@@H]1C2(C)C` [PROSTRATIN], the Activity in the data set filed under Mus musculus [3] is recorded as more than 7 nmol. As for `CCC(C)C(=O)O[C@@]12C[C@@H](C)[C@@]3(O)[C@@H](C=C(COC(C)=O)C[C@]4(O)C(=O)C(C)=C[C@@H]34)[C@@H]1C2(C)C` (some centres not stated), the values for the Activity in the data set listed under Mus musculus [1] and in the data set filed under Mus musculus [2] were 1.5 nmol and 0.7 nmol⁻¹, respectively. On to `C/C=C(\C)C(=O)O[C@H]1[C@H]2[C@@H]([C@@H](O)[C@@H](C)C(=O)[C@@]34C[C@H](C)[C@H](OC(C)=O)[C@]3(/C=C(\C)[C@H]1OC(=O)C(C)CC)O4)C2(C)C` (some centres not stated), for which the Activity in the data set filed under Mus musculus [3] was more than 1000 µg. On the same count and under the same terms, the figure for `C/C=C(\C)C(=O)O[C@@H]1[C@@H]2[C@H]([C@H](OC(=O)/C(C)=C/C)[C@H](OC(C)=O)/C(C)=C/[C@@]34O[C@@]3(C[C@H](C)[C@@H]4O)C(=O)[C@@H]1C)C2(C)C` is more than 1000 µg. In the case of `CCCCCCCCCCCCCC(=O)O[C@@H]1[C@@H](C)[C@@]2(O)[C@@H](C=C(CO)C[C@]3(O)C(=O)C(C)=C[C@@H]23)[C@@H]2C(C)(C)[C@]12OC(C)=O` [PHORBOL MYRISTATE ACETATE], the values for the Activity in the data set listed under Mus musculus [1], in the data set listed under Mus musculus [3] and in the data set filed under Mus musculus [2] were 0.016 nmol, 0.05 µg and 63 nmol⁻¹, respectively. Turning to `CC(=O)OCC1=C[C@H]2[C@@H]3C(C)(C)[C@]3(OC(=O)C(C)C)C[C@@H](C)[C@]2(O)[C@@H]2C=C(C)C(=O)[C@@]2(O)C1`, the Activity in the data set listed under Mus musculus [1] came out at 1.5 nmol; in the data set filed under Mus musculus [2], 0.7 nmol⁻¹. `C/C=C(\C)C(=O)O[C@@H]1[C@@H]2[C@H]([C@H](OC(=O)/C(C)=C/C)[C@H](OC(C)=O)/C(C)=C/[C@@]34O[C@@]3(C[C@H](C)[C@@H]4OC(C)=O)C(=O)[C@@H]1C)C2(C)C`: the Activity in the data set filed under Mus musculus [3] was more than 1000 µg.

For the compound `CC1=C[C@H]2[C@@]3(O)[C@H](C)C[C@]4(OC(=O)C(C)C)[C@H]([C@@H]3C=C(CO)C[C@]2(O)C1=O)C4(C)C`, the Activity amounted to 0.53 nmol in the data set listed under Mus musculus [1] and 1.9 nmol⁻¹ in the data set filed under Mus musculus [2].

Turning to `C/C=C(\C)C(=O)O[C@@]12C[C@@H](C)[C@@]3(O)[C@@H](C=C(COC(C)=O)C[C@]4(O)C(=O)C(C)=C[C@@H]34)[C@@H]1C2(C)C`, the Activity in the data set filed under Mus musculus [1] worked out at 1.2 nmol; in the data set filed under Mus musculus [2], 0.8 nmol⁻¹.

For `C/C=C(/C)C(=O)O[C@@]12C[C@@H](C)[C@@]3(O)[C@@H](C=C(CO)C[C@]4(O)C(=O)C(C)=C[C@@H]34)[C@@H]1[C@@]2(C)COC(=O)C(C)C`, the values for the Activity in the data set filed under Mus musculus [1] and in the data set filed under Mus musculus [2] were 0.25 nmol and 4 nmol⁻¹, respectively. For `C/C=C(/C)C(=O)O[C@@]12C[C@@H](C)[C@@]3(O)[C@@H](C=C(COC(C)=O)C[C@]4(O)C(=O)C(C)=C[C@@H]34)[C@@H]1[C@@]2(C)COC(=O)C(C)C` the same measures were 0.91 nmol and 1.1 nmol⁻¹. Taken in the same sequence, the figures for `CCC(C)C(=O)O[C@@]12C[C@@H](C)[C@@]3(O)[C@@H](C=C(CO)C[C@]4(O)C(=O)C(C)=C[C@@H]34)[C@@H]1C2(C)C` (some centres not stated) were 0.83 nmol and 1.2 nmol⁻¹. For `C/C=C(\C)C(=O)O[C@@]12C[C@@H](C)[C@@]3(O)[C@@H](C=C(CO)C[C@]4(O)C(=O)C(C)=C[C@@H]34)[C@@H]1C2(C)C`, the Activity in the data set filed under Mus musculus [1] stood at 0.28 nmol; in the data set listed under Mus musculus [2] it was 3.6 nmol⁻¹.
